In ChEMBL document CHEMBL3046570, “Synthesis, structure characterization, and biological evaluation of some new 1,2,3-benzotriazole derivatives” (2010):
Calls of active or inactive are those of the source. The calls are words filed in the database; no cut-off is given here.

Assays:
Mycosphaerella arachidis = assay: Fungicidal activity against Mycosphaerella arachidis assessed as inhibition of mycelium formation at 50 ug/ml after 72 hr (reference value: 0.005%); assay type: functional
Homo sapiens = species: Homo sapiens; assay: Cytotoxicity against Homo sapiens (human) HEP7402 cells assessed as decrease in cell viability at 0.05 to 0.2 mM after 24 to 72 hr by MTT assay; assay type: functional, cell-based
4T1 [1] = assay: Cytotoxicity against Mus musculus (mouse) 4T1 cells assessed as cell survival at 0.2 mM after 48 hr by MTT assay relative to control; assay type: functional; settings: 4T1, 48 h, read-out: Survival
4T1 [2] = assay: Cytotoxicity against Mus musculus (mouse) 4T1 cells assessed as decrease in cell viability at 0.2 mM by MTT assay; assay type: functional, cell-based; settings: TDE = time-dependent effect
4T1 [3] = assay: Cytotoxicity against Mus musculus (mouse) 4T1 cells assessed as decrease in cell viability after 24 to 72 hr by MTT assay; assay type: functional, cell-based
4T1 [4] = assay: Cytotoxicity against Mus musculus (mouse) 4T1 cells assessed as cell survival at 0.2 mM after 72 hr by MTT assay relative to control; assay type: functional; settings: 4T1, 72 h, read-out: Survival
4T1 [5] = assay: Cytotoxicity against Mus musculus (mouse) 4T1 cells assessed as cell survival at 0.2 mM after 24 hr by MTT assay relative to control; assay type: functional; settings: 4T1, 24 h, read-out: Survival

## O=C(OC(Cn1nnc2ccccc21)C(=O)c1ccc(Cl)cc1Cl)c1cccnc1 (stereo unspecified)
Mycosphaerella arachidis
  inhibition at 50 µg/mL: 31.3%

## Cc1ccc(C(=O)C(Cn2nnc3ccccc32)OC(=O)c2cccnc2)cc1 (stereo unspecified)
Mycosphaerella arachidis
  inhibition at 50 µg/mL: 0%
Homo sapiens
  Activity: Active

## O=C(OC(Cn1nnc2ccccc21)C(=O)c1ccccc1)c1ccncc1 (stereo unspecified)
Mycosphaerella arachidis
  inhibition at 50 µg/mL: 13%

## O=C(OC(Cn1nnc2ccccc21)C(=O)c1ccc(Cl)cc1)c1cccnc1 (stereo unspecified)
4T1 [1]
  viability at 200 µM: 45%
4T1 [2]
  Activity: tde
4T1 [3]
  Activity: Dose-dependent effect
Mycosphaerella arachidis
  inhibition at 50 µg/mL: 18.8%
4T1 [4]
  viability at 200 µM: 40.3%
4T1 [5]
  viability at 200 µM: 52.2%

## O=C(OC(Cn1nnc2ccccc21)C(=O)c1ccccc1)c1cccnc1 (stereo unspecified)
Mycosphaerella arachidis
  inhibition at 50 µg/mL: 15%
